Test results from US20230227466A1, “SUBSTITUTED THIENOPYRIMIDINES THAT INTERACT WITH THE RAS SUPERFAMILY FOR THE TREATMENT OF CANCERS, INFLAMMATORY DISEASES, RASOPATHIES, AND FIBROTIC DISEASE” (SHY Therapeutics, LLC, priority 2020, published 2023).
Like-named read-outs stand apart in the source and are kept apart here.

How the values were obtained:
[1] = target: T1, KRas Q61H mutant (Homo sapiens, UniProt P01116, Q61H); test: Ras GTP binding domain inhibition assay (labeled-GTP competition, cell-free)
T1 construct: made in house
In short: (§1)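 Labeled-GTP competition read out as bound Cy3/Cy5-GTP fluorescence after washes, with 100 nM tracer for 45 min at RT. Before tracer, compounds at 20 μM, or a dilution series for IC50, sat 3 h at RT on the Ni-immobilized His-tagged GTPase. Sos GEF (10-30 μg/mL) was optionally present for the last hour.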

[2] = target: T2, KRas G12D mutant (Homo sapiens, UniProt P01116, G12D); test: as above
T2 construct: made in house
In short: as §1

[3] = target: T3, KRas G12C mutant (Homo sapiens, UniProt P01116, G12C); test: as above
T3 construct: made in house
In short: as §1

[4] = system: MIA-PaCa-2 pancreatic cancer cell line (KRAS G12C); test: Cell proliferation assay (CellTiter 96 Aqueous One); format: cell-based; conditions: Homo sapiens; for IC50: MIA PaCa-2, MIA PaCa-2; for inhibition at 10 µM: MIA PaCa-2, read-out: % inh cell proliferation (10 μM) in MIA PaCa-2
In short: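 Percent inhibition of proliferation is derived from MTS absorbance data. Cells seeded at 2000–5000 per well were grown overnight before treatment. Compounds, at 10 μM final or in dilution series, stayed on cells for 2–4 days in medium containing 10% FBS and 0.3% DMSO.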

[5] = target: Rac-1 (Homo sapiens, UniProt P63000); test: Ras GTP binding domain inhibition assay (labeled-GTP competition, cell-free); set-up: made in house
In short: as §1

[6] = target: KRas wild type (Homo sapiens, UniProt P01116); test: as above; set-up: made in house
In short: as §1

[7] = target: Rho-A (Homo sapiens, UniProt P61586); test: as above; set-up: made in house
In short: as §1

[8] = with SOS, read-out: KRas Q61H mutant + SOS: % inh.
[9] = without SOS, read-out: KRas Q61H mutant: % inh.
[10] = with SOS, read-out: KRas G12D mutant + SOS: % inh.
[11] = without SOS, read-out: KRas G12D mutant: % inh.
[12] = with SOS, read-out: KRas G12C mutant + SOS: % inh.
[13] = without SOS, read-out: KRas G12C mutant: % inh.
[14] = with SOS, read-out: Rac-1 + SOS: % inh.
[15] = without SOS, read-out: Rac-1: % inh.
[16] = with SOS, read-out: KRas wild type + SOS: % inh.
[17] = without SOS, read-out: KRas wild type: % inh.
[18] = with SOS, read-out: Rho-A + SOS: % inh.
[19] = without SOS, read-out: Rho-A: % inh.

| inhibition at 20 µM [1, 8] [%] | inhibition at 20 µM [1, 9] [%] | IC50 ([1]; with SOS) [µM] | inhibition at 20 µM [2, 10] [%] | inhibition at 20 µM [2, 11] [%] | inhibition at 20 µM [3, 12] [%] | inhibition at 20 µM [3, 13] [%] | IC50 [4] [µM] | inhibition at 20 µM [5, 14] [%] | inhibition at 20 µM [5, 15] [%] | inhibition at 20 µM [6, 16] [%] | inhibition at 20 µM [6, 17] [%] | inhibition at 20 µM [7, 18] [%] | inhibition at 20 µM [7, 19] [%] | SMILES | inhibition at 10 µM [4] [%] |
| --- | --- | --- | --- | --- | --- | --- | --- | --- | --- | --- | --- | --- | --- | --- | --- |
| 1 to 25 | 1 to 25 | > 10 | 0 | 1 to 25 | 0 | 1 to 25 | > 10 | 1 to 25 | 1 to 25 | 1 to 25 | 1 to 25 | 1 to 25 | 1 to 25 | O=C(c1nc(O)c2scc(-c3ccccn3)c2n1)N1CCOCC1 [Compound 22, (4-Hydroxy-7-(pyridin-2-yl)thieno[3,2-d]pyrimidin-2-yl)(morpholino)methanone] | 1 to 25 |
| 51 to 75 | 26 to 50 |  | 51 to 75 | 51 to 75 | 51 to 75 | 1 to 25 | 5 to 10 |  | 76 to 100 | 26 to 50 | 51 to 75 |  | 51 to 75 | Oc1nc(-c2nccn2CCOCc2ccccc2)nc2c(-c3ccccn3)csc12 [Compound 83, 2-(1-(2-(Benzyloxy)ethyl)-1H-imidazol-2-yl)-7-(pyridin-2-yl)thieno[3,2-d]pyrimidin-4-ol] | 76 to 100 |
| 1 to 25 | 0 | > 10 | 1 to 25 | 1 to 25 | 0 | 1 to 25 | > 10 | 1 to 25 | 1 to 25 | 1 to 25 | 1 to 25 | 1 to 25 | 1 to 25 | O=C(Nc1ccccc1)c1nc(O)c2scc(-c3ccccn3)c2n1 [Compound 23, 4-Hydroxy-N-phenyl-7-(pyridin-2-yl)thieno[3,2-d]pyrimidine-2-carboxamide] | 0 |
| 1 to 25 | 1 to 25 | > 10 | 1 to 25 | 26 to 50 | 1 to 25 | 1 to 25 | > 10 | 1 to 25 | 1 to 25 | 1 to 25 | 1 to 25 | 26 to 50 | 26 to 50 | O=C(c1nc(O)c2scc(-c3ccccn3)c2n1)N1CCCC1 [Compound 19, (4-Hydroxy-7-(pyridin-2-yl)thieno[3,2-d]pyrimidin-2-yl)(pyrrolidin-1-yl)methanone] | 0 |
| 26 to 50 | 26 to 50 | > 10 | 26 to 50 | 26 to 50 | 26 to 50 | 51 to 75 | > 10 | 26 to 50 | 26 to 50 | 1 to 25 | 51 to 75 | 26 to 50 | 26 to 50 | CC(C)NC(=O)c1nc(O)c2scc(-c3ccccn3)c2n1 [Compound 20, 4-Hydroxy-N-isopropyl-7-(pyridin-2-yl)thieno[3,2-d]pyrimidine-2-carboxamide] | 1 to 25 |
| 26 to 50 | 26 to 50 |  | 26 to 50 | 26 to 50 | 1 to 25 | 26 to 50 | 5 to 10 |  | 26 to 50 | 1 to 25 | 26 to 50 |  | 51 to 75 | COc1cccn2c(-c3nc(O)c4scc(-c5ccccn5)c4n3)ncc12 [Compound 84, 2-(8-Methoxyimidazo[1,5-a]pyridin-3-yl)-7-(pyridin-2-yl)thieno[3,2-d]pyrimidin-4-ol] | 51 to 75 |
| 51 to 75 | 76 to 100 |  | 51 to 75 | 76 to 100 | 51 to 75 | 51 to 75 | 5 to 10 |  | 51 to 75 | 51 to 75 | 76 to 100 |  | 51 to 75 | COCCn1cnc(-c2nc(O)c3scc(-c4ccccn4)c3n2)c1 [Compound 78, 2-(1-(2-Methoxyethyl)-1H-imidazol-4-yl)-7-(pyridin-2-yl)thieno[3,2-d]pyrimidin-4-ol] | 51 to 75 |

The next lines start with the molecule.

| SMILES | inhibition at 20 µM [1, 8] [%] | inhibition at 20 µM [1, 9] [%] | IC50 ([1]; with SOS) [µM] | inhibition at 20 µM [2, 10] [%] | inhibition at 20 µM [2, 11] [%] | inhibition at 20 µM [3, 12] [%] | inhibition at 20 µM [3, 13] [%] | IC50 [4] [µM] | inhibition at 20 µM [5, 14] [%] | inhibition at 20 µM [5, 15] [%] | inhibition at 20 µM [6, 16] [%] | inhibition at 20 µM [6, 17] [%] | inhibition at 20 µM [7, 18] [%] | inhibition at 20 µM [7, 19] [%] | inhibition at 10 µM [4] [%] |
| --- | --- | --- | --- | --- | --- | --- | --- | --- | --- | --- | --- | --- | --- | --- | --- |
| Cc1c(-c2ccn(C(C)C)n2)sc2nc(-c3nccn3C)nc(NC3CCOC3)c12 (racemic) [Compound 37, rac-6-(1-Isopropyl-1H-pyrazol-3-yl)-5-methyl-2-(1-methyl-1H-imidazol-2-yl)-N-(tetrahydrofuran-3-yl)thieno[2,3-d]pyrimidin-4-amine] | 76 to 100 | 76 to 100 |  | 76 to 100 | 76 to 100 | 76 to 100 | 76 to 100 | 5 to 10 | 76 to 100 | 76 to 100 | 76 to 100 | 76 to 100 | 76 to 100 | 76 to 100 | 51 to 75 |
| Cc1c(-c2ccn(C(C)C)n2)sc2nc(-c3nccn3C)nc(NC[C@@H]3CCC(=O)N3)c12 [Compound 51] | 51 to 75 | 51 to 75 |  | 51 to 75 | 26 to 50 | 26 to 50 | 51 to 75 | > 10 |  | 51 to 75 | 51 to 75 | 51 to 75 |  | 76 to 100 | 0 |
| CO[C@H]1CC[C@@H](Nc2nc(-c3ccccn3)nc3sc(-c4ccn(C(C)C)n4)c(C)c23)C1 (racemic) [Compound 69, Rac-6-(1-isopropyl-1H-pyrazol-3-yl)-N-((1R,3S)-3-methoxycyclopentyl)-5-methyl-2-(pyridine-2-yl)thieno[2,3-d]pyrimidin-4-amine] | 76 to 100 | 76 to 100 |  | 51 to 75 | 51 to 75 | 51 to 75 | 51 to 75 | 5 to 10 | 26 to 50 | 1 to 25 | 51 to 75 | 51 to 75 | 51 to 75 | 51 to 75 | 76 to 100 |
| COCCn1ccnc1-c1nc(N[C@@H]2CC[C@H](OC)C2)c2ccsc2n1 (racemic) [Compound 8, Rac-N-((1R,3S)-3-methoxycyclopentyl)-2-(1-(2-methoxyethyl)-1H-imidazol-2-yl)thieno[2,3-d]pyrimidin-4-amine] | 76 to 100 | 76 to 100 | 1 to 4.99 | 76 to 100 | 76 to 100 | 76 to 100 | 76 to 100 | > 10 | 76 to 100 | 76 to 100 | 76 to 100 | 76 to 100 | 76 to 100 | 76 to 100 | 26 to 50 |
| COc1cc(Nc2nc(-c3nccn3C)nc3sc(-c4ccn(C(C)C)n4)c(C)c23)ncn1 [Compound 66, 6-(1-Isopropyl-1H-pyrazol-3-yl)-N-(6-methoxypyrimidin-4-yl)-5-methyl-2-(1-methyl-1H-imidazol-2-yl)thieno[2,3-d]pyrimidin-4-amine] | 26 to 50 | 51 to 75 |  | 51 to 75 | 76 to 100 | 26 to 50 | 26 to 50 | < 1 |  | 51 to 75 | 51 to 75 | 51 to 75 |  | 76 to 100 | 76 to 100 |
| CO[C@H]1CC[C@@H](Nc2nc(C(=O)NC(C)C)nc3sccc23)C1 (racemic) [Compound 13, Rac-N-isopropyl-4-(((1R,3S)-3-methoxycyclopentyl)amino)thieno[2,3-d]pyrimidine-2-carboxamide] | 0 | 0 | > 10 | 0 | 1 to 25 | 0 | 0 | > 10 | 0 | 1 to 25 | 1 to 25 | 0 | 1 to 25 | 1 to 25 | 0 |
